Assay type in all cases: biochemical
The target of one assay is T1, TrkA (Homo sapiens, UniProt P04629).
T1 construct: purchased Invitrogen PV3144
Put plainly: TrkA kinase inhibition, HTRF assay. The conditions noted are these: LCK peptide substrate 125 nM, TrkA 2-10 nM pre-incubated with ATP 200 μM. The essentials: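 TrkA (2-10 nM) preactivated 20 min with 200 μM ATP in HEPES pH 7.4 with Mg2+/Mn2+, then compound for 10 min, then 125 nM biotinylated LCK-peptide for 1 h at ambient temperature. HTRF 665/620 ratio read; IC50 fitted from initial-rate percent inhibition.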

In the next assay the target is T2, TrkB (Homo sapiens, UniProt Q16620).
T2 construct: purchased Invitrogen PV3616
Put plainly: TrkB kinase inhibition, HTRF assay. Particulars: LCK peptide substrate, assay ATP concentration targeted 5 μM. On the procedure:
(§1) TrkA, TrkB, and TrkC enzymes were obtained from Invitrogen (as catalog numbers PV3144, PV3616, and PV3617, respectively). The ability of a compound to inhibit the enzymatic activity of the TrkA, TrkB, and TrkC enzymes was determined in separate assays. Enzyme activity was measured in an HTRF® (homogeneous time resolved fluorescence) assay, which detects enzymatic phosphorylation of a biotinylated synthetic peptide substrate (an LCK peptide analog, biotin-ahx-GAEEEIYAAFFA, from Genemed Synthesis). Phosphorylation is assessed by HTRF® in the presence of an anti-phosphotyrosine antibody conjugated to Eu^3+ cryptate (Cisbio) as donor fluorophore, and streptavidin conjugated to allophycocyanin (ProZyme) as acceptor fluorophore. The HTRF® signal was detected at two different wavelengths (620 nm and 665 nm) which were used to calculate the fluorescence ratio.
(§2) Each enzyme was titrated to a concentration optimized to ensure accurate measurement of the initial reaction rate. To allow the Trk enzymes to undergo activation and auto-phosphorylation, a 20 minute pre-incubation with ATP was carried out (at twice the final targeted enzyme and ATP concentration) prior to addition of test compound and the peptide substrate.
(§3) TrkA in vitro assays were performed by pre-incubating TrkA (2-10 nM) with ATP (200 μM) for 20 minutes at ambient temperature in 50 mM HEPES pH 7.4, 10 mM MgCl2, 2 mM MnCl2, 100 μM Na3VO4, 1 mM dithiothreitol, 0.01% BSA (bovine serum albumin). Then, to the activated Trk enzyme mixture was added the test compound in 2% dimethyl sulfoxide. After 10 minutes, the peptide substrate (125 nM) was added. After 1 hour, enzyme reactions were terminated by addition of equal reaction volumes of detection/stop reagent (containing 0.2 μg/mL anti-phosphotyrosine monoclonal antibody labeled with europium from Cisbio (catalog# PT66-K), and 4 μg/mL PhycoLink® Streptavidin-Allophycocyanin conjugate from ProZyme (catalog# PJ25S) in 60 mM EDTA in 40 mM HEPES pH 7.4, 480 mM KF, 0.01% Tween® 20 and 0.1% BSA bovine serum albumin) Reaction plates were stored at 4° C. overnight before reading the fluorescence ratio signal on a PerkinElmer EnVision™ fluorescence detector. Individual reaction wells were stopped at time points to obtain reaction rates. The test inhibitor compounds were assayed in duplicate, at half-log serial dilutions over a range of concentrations (e.g. starting at 50 μM or 5 μM as the high compound concentration). The percent Trk enzyme inhibition was calculated from the initial rates of the inhibited reactions relative to the uninhibited control. IC50 values were calculated by fitting the inhibition percent to the concentration of inhibitor [I] in the assay in equation 1 below, to solve for the IC50.
(§4) Inhibition %=100[I]/([I]+[IC50]) equation 1
(§5) The TrkB and TrkC in vitro assays were performed as described above, except that for these enzymes the assay ATP concentration targeted was 5 μM.

The target in the next assay is T3, TrkC (Homo sapiens, UniProt Q16288).
T3 construct: purchased Invitrogen PV3617
Description: TrkC kinase inhibition, HTRF assay. The conditions noted are these: LCK peptide substrate, assay ATP concentration targeted 5 μM. As for the experimental part: as §1, §2, §3, §4, §5

T1 sequence (P04629 33-796): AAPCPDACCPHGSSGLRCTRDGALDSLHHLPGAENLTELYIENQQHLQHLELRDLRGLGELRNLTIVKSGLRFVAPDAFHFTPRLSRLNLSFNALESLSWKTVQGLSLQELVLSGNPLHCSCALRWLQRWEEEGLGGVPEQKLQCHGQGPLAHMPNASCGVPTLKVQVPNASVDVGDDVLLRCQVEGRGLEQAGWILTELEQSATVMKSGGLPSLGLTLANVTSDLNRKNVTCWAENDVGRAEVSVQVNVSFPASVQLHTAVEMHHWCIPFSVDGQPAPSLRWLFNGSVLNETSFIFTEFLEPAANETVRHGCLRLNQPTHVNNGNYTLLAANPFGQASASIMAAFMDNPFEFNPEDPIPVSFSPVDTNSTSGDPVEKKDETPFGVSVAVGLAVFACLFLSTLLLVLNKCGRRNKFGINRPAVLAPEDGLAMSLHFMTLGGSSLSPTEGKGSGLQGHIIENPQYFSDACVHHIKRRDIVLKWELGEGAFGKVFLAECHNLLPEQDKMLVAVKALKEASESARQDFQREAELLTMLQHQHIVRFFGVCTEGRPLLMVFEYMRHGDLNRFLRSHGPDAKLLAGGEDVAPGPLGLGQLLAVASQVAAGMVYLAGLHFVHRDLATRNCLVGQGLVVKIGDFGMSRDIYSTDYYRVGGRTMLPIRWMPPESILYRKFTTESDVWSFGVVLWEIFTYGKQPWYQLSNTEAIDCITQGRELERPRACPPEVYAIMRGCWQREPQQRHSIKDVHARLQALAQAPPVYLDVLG
T3 sequence (Q16288 32-839): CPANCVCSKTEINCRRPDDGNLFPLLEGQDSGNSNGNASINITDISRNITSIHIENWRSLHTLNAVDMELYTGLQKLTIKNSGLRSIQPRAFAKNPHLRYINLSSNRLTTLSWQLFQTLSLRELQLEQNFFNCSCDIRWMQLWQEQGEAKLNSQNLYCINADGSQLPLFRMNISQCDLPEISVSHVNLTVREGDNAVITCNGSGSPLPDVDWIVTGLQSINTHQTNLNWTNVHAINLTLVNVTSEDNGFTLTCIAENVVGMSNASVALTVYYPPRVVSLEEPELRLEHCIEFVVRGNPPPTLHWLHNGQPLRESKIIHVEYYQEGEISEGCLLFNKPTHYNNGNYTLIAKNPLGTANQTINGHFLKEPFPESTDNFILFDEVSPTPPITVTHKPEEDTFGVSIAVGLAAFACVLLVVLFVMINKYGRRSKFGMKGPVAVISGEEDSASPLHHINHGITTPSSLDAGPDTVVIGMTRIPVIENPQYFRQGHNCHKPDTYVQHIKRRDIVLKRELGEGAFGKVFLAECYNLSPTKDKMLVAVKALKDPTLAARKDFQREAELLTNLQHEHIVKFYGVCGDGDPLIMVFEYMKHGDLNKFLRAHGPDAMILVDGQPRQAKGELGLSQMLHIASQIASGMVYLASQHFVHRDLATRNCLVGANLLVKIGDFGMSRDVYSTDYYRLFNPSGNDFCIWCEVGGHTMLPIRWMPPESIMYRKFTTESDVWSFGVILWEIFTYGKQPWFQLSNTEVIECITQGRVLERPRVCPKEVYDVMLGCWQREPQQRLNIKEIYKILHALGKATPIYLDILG
T2 sequence (Q16620 32-822): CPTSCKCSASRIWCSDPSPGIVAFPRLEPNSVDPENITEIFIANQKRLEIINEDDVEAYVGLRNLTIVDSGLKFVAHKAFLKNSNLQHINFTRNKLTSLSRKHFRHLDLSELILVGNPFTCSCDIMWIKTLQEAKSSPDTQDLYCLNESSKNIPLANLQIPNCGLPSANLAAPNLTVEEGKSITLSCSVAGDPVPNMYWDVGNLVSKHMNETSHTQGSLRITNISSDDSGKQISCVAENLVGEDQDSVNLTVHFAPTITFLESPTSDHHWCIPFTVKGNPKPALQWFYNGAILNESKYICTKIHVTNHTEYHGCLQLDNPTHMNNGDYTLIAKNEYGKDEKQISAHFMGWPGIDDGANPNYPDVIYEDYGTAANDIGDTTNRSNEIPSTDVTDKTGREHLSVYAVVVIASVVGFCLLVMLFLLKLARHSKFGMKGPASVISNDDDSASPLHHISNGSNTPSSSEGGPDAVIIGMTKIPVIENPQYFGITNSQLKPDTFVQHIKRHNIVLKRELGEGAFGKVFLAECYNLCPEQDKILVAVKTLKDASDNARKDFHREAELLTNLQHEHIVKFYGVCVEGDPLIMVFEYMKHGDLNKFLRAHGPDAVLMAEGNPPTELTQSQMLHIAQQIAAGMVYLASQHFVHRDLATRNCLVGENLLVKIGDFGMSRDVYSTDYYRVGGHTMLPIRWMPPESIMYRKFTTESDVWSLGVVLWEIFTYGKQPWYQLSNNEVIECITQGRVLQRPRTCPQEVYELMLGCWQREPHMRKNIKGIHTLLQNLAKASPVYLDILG

With `CNC(=O)c1ccc(-c2cc(OC(C)C)c3c(N)n[nH]c3c2)cc1N1CCN(C2CCCCC2)CC1` [Example 109, 4-(3-amino-4-isopropoxy-1H-indazol-6-yl)-2-(4-cyclohexylpiperazin-1-yl)-N-methylbenzamide], the values for the IC50 at TrkA, against TrkB and on TrkC were 15.7 nM, 2.58 nM and 4.89 nM, respectively.
Consider `COc1cncnc1N1CCN(c2cc(-c3cc(OC4CCOCC4)c4c(N)n[nH]c4c3)ccc2C(N)=O)CC1` [Example 6, 4-[3-amino-4-(tetrahydro-2H-pyran-4-yloxy)-1H-indazol-6-yl]-2-[4-(5-methoxypyrimidin-4-yl)piperazin-1-yl]benzamide], for which the IC50 against TrkA is 42.1 nM; on TrkB it was 15 nM; against TrkC it was 23.7 nM.
Consider `NC(=O)c1ccc(-c2cc(OC3CCCC3)c3c(N)n[nH]c3c2)cc1N1CCN(c2ccc(F)cc2)CC1` [Example 72, 4-[3-amino-4-(cyclopentyloxy)-1H-indazol-6-yl]-2-[4-(4-fluorophenyl)piperazin-1-yl]benzamide], for which the IC50 at TrkA came out at 17.5 nM; against TrkB it was 4.92 nM; at TrkC it was 5.35 nM.
In the case of `NC(=O)c1ccc(-c2cc(OC3CCOCC3)c3c(N)n[nH]c3c2)cc1N1CCN(c2ccccc2)CC1` [Example 1, 4-[3-amino-4-(tetrahydro-2H-pyran-4-yloxy)-1H-indazol-6-yl]-2-(4-phenylpiperazin-1-yl)benzamide], the figures for the IC50 against TrkA, against TrkB and on TrkC were 2.66 nM, 0.786 nM and 1.03 nM, respectively.
Consider `CNC(=O)c1ccc(-c2cc(O[C@@H](C)C(F)(F)F)c3c(N)n[nH]c3c2)cc1N1CCN(C2CCCCC2)CC1` [Example 47, 4-(3-amino-4-{[(2S)-1,1,1-trifluoropropan-2-yl]oxy}-1H-indazol-6-yl)-2-(4-cyclohexylpiperazin-1-yl)-N-methylbenzamide], for which the 50% inhibitory concentration (IC50) at TrkA is 232 nM; against TrkB, 268 nM; at TrkC, 300 nM.
On to `NC(=O)c1ccc(-c2cc(OC3CCCC3)c3c(N)n[nH]c3c2)cc1N1CCN(CCN2CCOCC2)CC1` [Example 70, 4-[3-amino-4-(cyclopentyloxy)-1H-indazol-6-yl]-2-{4-[2-(morpholin-4-yl)ethyl]piperazin-1-yl}benzamide], for which the IC50 against TrkA is 34.9 nM; against TrkB it was 83.7 nM; against TrkC it was 145 nM.
The matching figures for `NC(=O)c1ccc(-c2cc(OC3CCOCC3)c3c(N)n[nH]c3c2)cc1N1CCN(C2CC2)CC1` [Example 3, 4-[3-amino-4-(tetrahydro-2H-pyran-4-yloxy)-1H-indazol-6-yl]-2-(4-cyclopropylpiperazin-1-yl)benzamide]: 55.3 nM, 20.6 nM and 25.7 nM.
On the same counts, the results for `CNC(=O)c1ccc(-c2cc(OC(C)C(F)(F)F)c3c(N)n[nH]c3c2)cc1N1CCN(C2CCCCC2)CC1` (stereo not shown) [Example 35, 4-{3-amino-4-[(1,1,1-trifluoropropan-2-yl)oxy]-1H-indazol-6-yl}-2-(4-cyclohexylpiperazin-1-yl)-N-methylbenzamide] are 59.5 nM, 91.9 nM and 105 nM.
`CC(Oc1cc(-c2ccc(C(N)=O)c(N3CCN(c4cccnc4)CC3)c2)cc2[nH]nc(N)c12)C(F)(F)F` (stereo not shown) [Example 91, 4-{3-amino-4-[(1,1,1-trifluoropropan-2-yl)oxy]-1H-indazol-6-yl}-2-[4-(pyridin-3-yl)piperazin-1-yl]benzamide]: the results for the IC50 on TrkA, against TrkB and against TrkC were 5.31 nM, 2.01 nM and 2.89 nM, respectively.
For `CC(Oc1cc(-c2ccc(C(N)=O)c(N3CCN(c4ccccc4)CC3)c2)cc2[nH]nc(N)c12)C(F)(F)F` (stereo not shown) [Example 92, 4-{3-amino-4-[(1,1,1-trifluoropropan-2-yl)oxy]-1H-indazol-6-yl}-2-(4-phenylpiperazin-1-yl)benzamide], the half-maximal inhibitory concentration (IC50) at TrkA is 3.35 nM; against TrkB, 1.27 nM; against TrkC it was 1.72 nM.
For the molecule `NC(=O)c1ccc(-c2cc(OC3CCCC3)c3c(N)n[nH]c3c2)cc1N1CCN(c2cccnc2)CC1` [Example 69, 4-[3-amino-4-(cyclopentyloxy)-1H-indazol-6-yl]-2-[4-(pyridin-3-yl)piperazin-1-yl]benzamide], the IC50 came out at 2.95 nM against TrkA, 1.63 nM at TrkB and 3.09 nM against TrkC.
As to `Nc1n[nH]c2cc(-c3ccc(C(=O)NC4CC4)c(N4CCN(c5ccccc5)CC4)c3)cc(OC3CCOCC3)c12` [Example 23, 4-[3-amino-4-(tetrahydro-2H-pyran-4-yloxy)-1H-indazol-6-yl]-N-cyclopropyl-2-(4-phenylpiperazin-1-yl)benzamide], the IC50 at TrkA amounted to 15 nM; on TrkB, 8.04 nM; at TrkC it was 8.53 nM.
On to `CNC(=O)c1ccc(-c2cc(OC3CCOCC3)c3c(N)n[nH]c3c2)cc1N1CCN(CC2CCCC2)CC1` [Example 110, 4-[3-amino-4-(tetrahydro-2H-pyran-4-yloxy)-1H-indazol-6-yl]-2-[4-(cyclopentylmethyl)piperazin-1-yl]-N-methylbenzamide], for which the results for the IC50 against TrkA, on TrkB and against TrkC were 2.73 nM, 1.63 nM and 2.58 nM, respectively.
In the case of `CNC(=O)c1ccc(-c2cc(O[C@@H](C)C(F)(F)F)c3c(N)n[nH]c3c2)cc1N1CCN(C2CCC2)CC1` [Example 42, 4-(3-amino-4-{[(2S)-1,1,1-trifluoropropan-2-yl]oxy}-1H-indazol-6-yl)-2-(4-cyclobutylpiperazin-1-yl)-N-methylbenzamide], the IC50 on TrkA amounted to 422 nM.
On the same count and under the same terms, the value for `CNC(=O)c1ccc(-c2cc(O[C@H](C)C(F)(F)F)c3c(N)n[nH]c3c2)cc1N1CCN(CCC(C)(C)C)CC1` [Example 51, 4-(3-amino-4-{[(2R)-1,1,1-trifluoropropan-2-yl]oxy}-1H-indazol-6-yl)-2-[4-(3,3-dimethylbutyl)piperazin-1-yl]-N-methylbenzamide] was 75.4 nM; that for `CNC(=O)c1ccc(-c2cc(OC3CCOCC3)c3c(C)n[nH]c3c2)cc1N1CCN(C(=O)OC)CC1` [Example 153, methyl 4-{2-(methylcarbamoyl)-5-[3-methyl-4-(tetrahydro-2H-pyran-4-yloxy)-1H-indazol-6-yl]phenyl}piperazine-1-carboxylate] was 9.12 nM.
The molecule `CC(=O)c1ccc(-c2cc(OC3CCOCC3)c3c(N)n[nH]c3c2)cc1N1CCN(C2CCCCC2)CC1` [Example 19, 1-{4-[3-amino-4-(tetrahydro-2H-pyran-4-yloxy)-1H-indazol-6-yl]-2-(4-cyclohexylpiperazin-1-yl)phenyl}ethanone] returned an IC50 at TrkA of 38.1 nM. Compared with the last molecule, the IC50 is about 4.2-fold higher.
`NC(=O)c1ccc(-c2cc(OC3CCCC3)c3c(N)n[nH]c3c2)cc1N1CCN(C(=O)C2CC2)CC1` [Example 81, 4-[3-amino-4-(cyclopentyloxy)-1H-indazol-6-yl]-2-[4-(cyclopropylcarbonyl)piperazin-1-yl]benzamide] came in with an IC50 on TrkA of 17.4 nM.
The molecule `CC(Oc1cc(-c2ccc(C(N)=O)c(N3CCN(CCN4CCOCC4)CC3)c2)cc2[nH]nc(N)c12)C(F)(F)F` (stereo not shown) [Example 95, 4-{3-amino-4-[(1,1,1-trifluoropropan-2-yl)oxy]-1H-indazol-6-yl}-2-{4-[2-(morpholin-4-yl)ethyl]piperazin-1-yl}benzamide] yielded an IC50 against TrkA of 89.8 nM. This IC50 is about 5.2-fold higher than that of the molecule before.
Same read-out and setting: the value for `NC(=O)c1ccc(-c2cc(OC3CCNCC3)c3c(N)n[nH]c3c2)cc1N1CCN(c2ccccc2)CC1` [Example 63, 4-[3-amino-4-(piperidin-4-yloxy)-1H-indazol-6-yl]-2-(4-phenylpiperazin-1-yl)benzamide] was 25.3 nM.

Values taken from patent US20160376240A1, “6 Phenyl or 6 Pyridin 3 YL Indazole Derivatives and Methods of Use” (ABBVIE INC., priority 2014, published 2016).
